Assay results reported in PubChem BioAssay AID720587 (Broad Institute, 2013).
Values joined by “and” are separate entries in the source; they are usually repeats but may differ in a detail not shown here. Equal entries are not always repeated.

Test system: A673 Ewing sarcoma viability, CellTiter-Glo ATP luminescence, 72 h
Assay: EWS/Fli1-dependent A673 cell killing, confirmation, CellTiter-Glo luminescence, cherry-pick retest (AID 720587)

O=C(O)c1ccccc1C(=O)Nc1ccc(Oc2ccc3ccccc3c2)cc1
AC35: 15.6 µM

CC(C)(C)[S@](=O)N1Cc2cc(C(=O)NCC(F)(F)F)nc(-c3cccc(-c4cccc(F)c4)c3)c2[C@@H]1CCO
AC35: 14.3 µM

C=C(C(=O)c1ccccc1)C(C(=C)C(=O)c1ccccc1)c1ccc(OC)cc1
AC35: 4.04 µM

CCc1ccc(/C=C2\SC(=S)N(CCCC(=O)N3CCN(C)CC3)C2=O)cc1
AC35: 13.1 µM

Nc1ccn([C@@H]2O[C@H](CO)[C@@H](O)C2O)c(=O)n1 (stereo partly specified)
AC35: 0.448 µM

CN(C)c1ccc(-c2ccnc3c2CC(C)(C(=O)NCc2ccco2)O3)cc1 (stereo unspecified)
AC35: 7.77 µM

C[C@@H]1CN([C@@H](C)CO)C(=O)c2cccc(NS(=O)(=O)c3ccc(F)cc3)c2O[C@@H]1CN(C)Cc1ccc(C(=O)Nc2ccccc2N)cc1
AC35: 8.41 µM

COC(=O)C[C@H]1CC[C@@H](NC(=O)Nc2ccc(C(F)(F)F)cc2)[C@H](CO)O1
AC35: 18.9 µM

Oc1c(Cl)cc(Cl)c2cccnc12
AC35: 5.58 µM

C[C@@H]1CN([C@H](C)CO)C(=O)Cc2cc(N(C)C)ccc2O[C@H]1CN(C)Cc1ccc(C(=O)Nc2ccccc2N)cc1
AC35: 12.7 µM

COC(=O)C[C@@H]1CC[C@@H]2[C@@H](COc3ccc(NC(=O)Nc4cccc(F)c4)cc3C(=O)N2C)O1
AC35: 13.5 µM

Cc1cccc(/C=C(\c2nc3ccccc3[nH]2)S(=O)(=O)c2ccccc2)c1
AC35: 5.92 µM

CCCCc1c(Cc2ccccc2)ncn1CCc1ccccc1OC
AC35: 15 µM

C[C@H]1CN([C@@H](C)CO)C(=O)Cc2cc(NC(=O)CCCCCC(=O)Nc3ccccc3N)ccc2O[C@H]1CN(C)Cc1ccc(C(F)(F)F)cc1
AC35: 12.5 µM

Cc1cc(C)c2sc(NNC(=O)c3ccc(S(=O)(=O)N4CCc5ccccc5C4)cc3)nc2c1
AC35: 1.19 µM

Cc1ccc(C)c(S(=O)(=O)N2CCN(c3ncnc4sccc34)CC2)c1
AC35: 5.35 µM

COC1C(O)C(C)OC(OC2CCC3(C)C(CCC4C3C(O)CC3(C)C(C5=CC(=O)OC5)CCC43O)C2)C1O (stereo unspecified)
AC35: 0.228 µM

CN=c1scc(-c2ccccc2F)n1/N=C/c1ccc(O)c(O)c1O
AC35: 11.6 µM

Cc1ccc(S(=O)(=O)Nc2ccc3c(c2)C(=O)N([C@H](C)CO)C[C@@H](C)[C@@H](CN(C)Cc2ccc(C(=O)Nc4ccccc4N)cc2)O3)cc1
AC35: 11.9 µM

CCn1c(/C=N/NC(=O)c2ccc(OC)cc2)nc2ccccc21
AC35: 5.62 µM

C[C@@H]1CN([C@@H](C)CO)C(=O)Cc2cc(NC(=O)C3CCCCC3)ccc2O[C@H]1CN(C)Cc1ccc(C(=O)Nc2ccccc2N)cc1
AC35: 20.8 µM

COc1ccc(C(C)(O)c2nc(-c3cccc(F)c3)cs2)cc1 (stereo unspecified)
AC35: 9.33 µM

C(=Cc1cnc2ccccc2n1)c1ccc2c(c1)OCO2
AC35: 8.73 µM

CN1c2ccc(-c3ccc(C#N)cc3)cc2[C@H]2[C@H](CCN2S(=O)(=O)c2cccc(F)c2)[C@@H]1CO
AC35: 4.45 µM

COC(=O)CC1(C(=O)OC)Oc2ccc(Br)cc2C(=O)N1c1cccc(Cl)c1Cl (stereo unspecified)
AC35: 14.2 µM

COC(=O)C[C@@H]1CC[C@@H]2[C@H](COc3ccc(NC(=O)Nc4ccc(C#N)cc4)cc3C(=O)N2C)O1
AC35: 23.1 µM

O=C(NCc1cccnc1)C1Cc2c(-c3ccc(Cl)cc3)ccnc2O1 (stereo unspecified)
AC35: 7.98 µM

COc1cccc(Sc2ccccc2/C=N/NC(N)=O)c1
AC35: 2.23 µM

CC(C)(C)c1ccc(Oc2ccc(NC(=O)c3ccccc3C(=O)O)cn2)cc1
AC35: 22.2 µM

Cc1ccc(C(C)C)c(OCc2ccc(C(=O)N/N=C/c3ccc(O)cc3O)cc2)c1
AC35: 0.296 µM

CCN1/C(=C/C(C)=C/c2sc3ccccc3[n+]2CC)Sc2ccccc21
AC35: 1.36 µM

Cc1ccc2c(c1)C(=O)N1[C@H]3c4cc(Br)ccc4OC[C@@H]3[C@H](c3ccccc3)[C@]1(C)C(=O)N2
AC35: 14.5 µM

CCCN1C(=O)/C(=C/c2nc3ccccc3c(=O)[nH]2)c2ccccc21
AC35: 22 µM

O=c1[nH]c(/C=C2\C=Nc3ccccc32)c(O)n1Cc1ccccc1F
AC35: 3.16 µM

CC(C)c1oc(=O)cc2c1[C@@H](O)[C@H]1OC(=O)[C@@]3(C)CC[C@@H](O)[C@@]2(C)C13 (stereo partly specified)
AC35: 19.3 µM

CCc1ccc(/C=C2\SC(=S)N(CCCC(=O)NCCCN3CCOCC3)C2=O)cc1
AC35: 18.7 µM

C=C1C(=O)OC2C1CCC(C)C1(O)C=CC(=O)C21C (stereo unspecified)
AC35: 6.43 µM

N=c1ccn2c(n1)O[C@H]1[C@H](O)[C@@H](CO)O[C@H]12
AC35: 0.74 µM

COc1ccc(-c2cc(CNc3nc(NC(C)C)nc4cc(-c5ccccc5)sc34)on2)cc1
AC35: 10 µM

C[C@@H]1CN([C@@H](C)CO)C(=O)Cc2cc(N(C)C)ccc2O[C@H]1CN(C)Cc1ccc(C(=O)Nc2ccccc2N)cc1
AC35: 8.7 µM

Cc1c(Cl)cccc1NC(=O)CCC(=O)N/N=C/c1ccc[nH]1
AC35: 6.52 µM

COC(=O)C[C@@H]1CC[C@@H]2[C@H](COc3ccc(NC(=O)Nc4cccc(Cl)c4)cc3C(=O)N2C)O1
AC35: 12.5 µM

Cc1cc(C(=O)Nc2ccc3c(c2)C(=O)N(C)[C@@H]2CC[C@@H](CC(=O)NCc4ccc(-c5ccccc5)cc4)O[C@H]2CO3)no1
AC35: 8.06 µM

COc1ccc(C2=Nn3c(nnc3-c3ccccc3OC)SC2)cc1OCC1CC1
AC35: 4.88 µM

CN(Cc1cnc2nc(N)nc(N)c2n1)c1ccc(C(=O)N[C@@H](CCC(=O)O)C(=O)O)cc1
AC35: 0.0191 µM and 0.018 µM

CN1C(=O)c2cc(NC(=O)c3ccc(C(F)(F)F)cc3)ccc2OC[C@@H]2O[C@@H](CC(=O)NC3Cc4ccccc4C3)CC[C@H]21
AC35: 4.43 µM

CCc1ccc(N2C=C(C(=O)OC)C(c3ccc(OC)cc3)C(C#N)=C2N)cc1 (stereo unspecified)
AC35: 12.5 µM

Cc1nc2ncccn2c1-c1csc(Nc2ccc(O)cc2)n1
AC35: 1.35 µM

COC(=O)C(CC#Cc1ccc2c(c1)[C@]1(C(=O)N2)[C@H](c2ccc(OCCO)cc2)N2[C@H](c3ccccc3)[C@H](c3ccccc3)OC(=O)[C@H]2[C@@H]1C(=O)N1CCN(c2ncccn2)CC1)C(=O)OC
AC35: 7.81 µM

Cc1cccc(NC(=O)CN2CCN(C(=O)CNC(=O)c3ccc(-c4ccccc4)cc3)CC2)c1C
AC35: 12.8 µM

C[C@@H]1CN([C@@H](C)CO)C(=O)c2cccc(NS(=O)(=O)c3ccccc3)c2O[C@@H]1CN(C)Cc1ccc(C(=O)Nc2ccccc2N)cc1
AC35: 8.86 µM

CC(=NNc1cc(C)c2ccccc2n1)c1ccccn1
AC35: 0.417 µM

CC(=O)ON=C1C=CC(=C(C#N)c2ccccc2)C=C1
AC35: 5.49 µM

CCOc1ccc(N=C2C(=O)Nc3ccc(C)c(Br)c32)cc1
AC35: 20.7 µM

OC[C@H]1[C@@H](c2ccc(C#CC3CCCC3)cc2)[C@@H]2CN(CCC(F)(F)F)CCCCN12
AC35: 7.53 µM

CCS(=O)(=O)N1Cc2ccccc2CC1C(=O)Nc1nnc(SCc2ccc(C#N)cc2)s1 (stereo unspecified)
AC35: 12.5 µM

COC(=O)C[C@@H]1CC[C@@H]2[C@H](COc3ccc(NC(=O)c4ccc(F)c(F)c4)cc3C(=O)N2C)O1
AC35: 19.7 µM

C[C@H](CO)N1C[C@H](C)[C@@H](CN(C)Cc2ccc(C(F)(F)F)cc2)OCCCC[C@H](C)Oc2ccc(NS(=O)(=O)c3ccc(F)cc3)cc2C1=O
AC35: 13.4 µM

S=c1[nH]nc(-c2cc(-c3ccccc3)n[nH]2)n1/N=C/C(Br)=C/c1ccccc1
AC35: 5.5 µM

COc1ccc(/C=C/C(=O)c2ccc(C(=O)/C=C/c3ccc(OC)c(OC)c3)cc2)cc1OC
AC35: 5.02 µM

O=c1ccc2ccccc2c2ccccc12
AC35: 6.04 µM

CCN(Cc1ccccc1)c1ccc(/C=N/N=C(N)N)cc1
AC35: 6.3 µM

COC(=O)C[C@@H]1CC[C@@H]2[C@H](COc3ccc(NC(=O)c4ccc(F)cc4)cc3C(=O)N2C)O1
AC35: 23 µM

C[C@H]1CN([C@@H](C)CO)S(=O)(=O)c2ccc(C#Cc3ccncc3)cc2O[C@@H]1CN(C)C(=O)Nc1ccc2c(c1)OCO2
AC35: 0.64 µM

CCc1ccc(S(=O)(=O)c2ccc(-n3nc(C)cc3N)cc2)cc1
AC35: 17.8 µM

CC12CCC(O)CC1CCC1C2CCC2(C)C(C3=CC(=O)OC3)CCC12O (stereo unspecified)
AC35: 0.385 µM

Cc1[nH][nH]c(=O)c1C(c1c(C)[nH][nH]c1=O)c1cn(Cc2ccc(Cl)c(Cl)c2)c2ccccc12
AC35: 9.8 µM

CCCCCCCCNC(C)C(O)c1ccc(SC(C)C)cc1 (stereo unspecified)
AC35: 5.92 µM

COCC(=O)Nc1ccc2c(c1)[C@@H]1C[C@@H](CC(=O)NCc3ccc(-c4ccccc4)cc3)O[C@@H](CO)[C@@H]1O2
AC35: 12.7 µM

CN=c1scc(-c2cccs2)n1/N=C/c1ccccc1O
AC35: 16.9 µM

CN(C)c1ccc(C=c2c3ccccc3n3c2c2c([n+]3C)CCCC2)cc1
AC35: 2.82 µM

CN1c2ccc(-c3ccc(C#N)cc3)cc2[C@H]2[C@H](CCN2S(=O)(=O)c2cccc(F)c2)[C@H]1CO
AC35: 3.45 µM

NC(Cc1ccc(C(F)(F)F)cc1)c1csc(NC(=O)Nc2ccccc2Cc2ccccc2)n1 (stereo unspecified)
AC35: 12.8 µM

COc1ccc(-c2ccc3c(c2)[C@H]2[C@H](CCN2S(=O)(=O)c2ccc(OC)cc2)[C@@H](CO)N3C)cc1
AC35: 6.76 µM

Oc1c(C(c2ccc(Cl)cc2)N2CCCC2)cc(Cl)c2cccnc12 (stereo unspecified)
AC35: 1.47 µM

C[C@]12CC[C@H](O)C[C@H]1CC[C@@H]1[C@@H]2C[C@@H](O)[C@]2(C)[C@@H](C3=CC(=O)OC3)CC[C@]12O
AC35: 1.1 µM

O=c1oc2cc(O)ccc2s1
AC35: 12.5 µM

C[C@H](CO)N1C[C@H](C)[C@H](CN(C)CC2CCCCC2)Oc2ccc(NC(=O)Nc3cccc4ccccc34)cc2C1=O
AC35: 18.7 µM

Cc1noc(C)c1C(=O)Nc1sccc1C(N)=O
AC35: 14.3 µM

CN(C[C@H]1N[C@@H](CO)[C@@H]1c1ccc(C2=CCCC2)cc1)C(=O)c1ccc(F)cc1
AC35: 4.19 µM

COC(=O)C[C@@H]1CC[C@H]2[C@H](COc3ccc(NC(=O)Nc4cc(C)cc(C)c4)cc3C(=O)N2C)O1
AC35: 22.2 µM

COc1cc(-c2cnc3c(NC=O)cc(-c4cccc(NC(C)=O)c4)cn23)cc(OC)c1OC
AC35: 0.371 µM

CCOc1ccc(OCc2ccc(C(=O)NN=Cc3ccc[nH]3)cc2)cc1
AC35: 0.667 µM

C/C(=C\c1ccccc1)C(=O)N1CCC=CC1=O
AC35: 9 µM

CCOc1ccc2nc(NC3=NC(c4ccc(OC)cc4)CC(=O)N3)nc(C)c2c1 (stereo unspecified)
AC35: 12.1 µM

O=C(NC1CCCC1)N1CCCCN2[C@@H](CO)[C@@H](c3ccc(/C=C/c4ccccc4)cc3)[C@@H]2C1
AC35: 7.8 µM

Cc1cccc(N2CCN(C3C(=O)Nc4ccccc4-n4nnnc43)CC2)c1C (stereo unspecified)
AC35: 13.1 µM

N/C(=C\C(=O)c1cc(Cl)ccc1O)C(Cl)(Cl)Cl
AC35: 4 µM

C[C@@H]1CN([C@@H](C)CO)C(=O)c2cccc(NC(=O)CCCCCC(=O)Nc3ccccc3N)c2O[C@@H]1CN(C)Cc1ccc(Oc2ccccc2)cc1
AC35: 14.8 µM

CCCC[C@@H]1Cc2[nH][nH]c(=O)c2[C@H](c2ccc3ccccc3c2)O1
AC35: 7.67 µM

Cc1ccc(S(=O)(=O)Nc2ccc3c(c2)C(=O)N([C@H](C)CO)C[C@H](C)[C@@H](CN(C)Cc2ccc(C(F)(F)F)cc2)OCCCC[C@H](C)O3)cc1
AC35: 12.8 µM
